Test results: patent publication US10975056B2 (GlaxoSmithKline Intellectual Property Development Limited, priority 2016, dated 2021)
Where a name gives a salt, the structure may show the parent alone. Read-outs that look alike come from different tables or passages of the source.

Experiments:
SCD transgenic mice = test: Fetal hemoglobin in SCD transgenic mouse model, F-reticulocytes and F-RBCs by flow cytometry; format: in vivo; conditions: oral, 10 or 50 mg/kg BID daily, measured by flow cytometry
Source text: FIG. 2B depicts the effect of Compound A on fetal hemoglobin in the transgenic mouse model.

[1] = system: human hemoglobin transgenic mice (sickle cell disease model); test: Sickle cell mouse model, fetal hemoglobin induction in vivo; conditions: for increase in % F RBCs / increase in % F reticulocytes: 2 week dose period; for increase in % HbF protein: two weeks
Source text: A mouse model of sickle cell disease was utilized to measure the in vivo efficacy of Compound A previously shown to have potent in vitro activity in human primary erythroid progenitor cells derived from normal bone marrow or sickle cell patient peripheral blood mononuclear cells.
The in vivo activity of Compound A was investigated in the sickle cell mouse model in accordance with US/UK standards of animal care.
Male and female human hemoglobin transgenic mice [B6; 129-Hbatm1(HBA)Tow/Hbbtm2(HBG1,HBB*)Tow/J Mice (Jackson Laboratories, Me.)] were approximately 6-8 weeks old and weighed approximately 15-25 grams at the initiation of the studies. To the extent possible, groups were gender balanced and comprised of 6 mice.
Mice were administered vehicle (10% DMA/90% PEG400), 10 or 50 mg/kg Compound A twice daily (BID) by oral route five days per week, over a two week period.
At the end of the dosing period, mice were euthanized by CO2 asphyxiation and blood from the vena cava was collected into EDTA tubes for fetal hemoglobin analysis. % HbF protein was determined by high performance liquid chromatography and % F cells (HbF expressing erythrocytes) were determined by flow cytometry. The mouse monoclonal anti-human HbF antibody conjugated to APC (Life Technologies, Grand Island, N.Y.) was used to identify HbF expressing erythroid cells. The nuclear dye, syto16, (Life Technologies) was used to separate the reticulocyte and RBC populations. Protein and cellular data were collected on the Bio-Rad D10 analyzer (Bio-Rad, Benicia, Calif.) and the FACs Canto I (BD BioSciences, San Jose, Calif.) respectively. Flow cytometry data was analyzed with Flowjo v7 software (Treestar, Inc Ashland. Oreg.). Group mean and standard deviation were determined for the control and treatment groups. Data were graphed and analyzed using 1-Way ANOVA with Tukey post test (Graphpad Prism v5 [La Jolla, Calif.]).

human full length DNMT1 = human full length DNMT1 (Homo sapiens (Human), UniProt P26358); test: DNMT1 breaklight assay; format: biochemical; conditions: repeated experimental runs, read-out: average IC50 against DNMT1
Protocol: DNMT1 breaklight in vitro assays were conducted in a total volume of 50 μl in a standard 384 well format, using black non-binding surface microplates (Corning 3575). Five μl of human full length DNMT1 (produced internally), used at a final concentration of 40 nM, was added to 5 μl of substrate mixture containing final concentrations of 125 nM hemi methylated oligonucleotide (synthesized at ATD Bio; 5′-FAM-[…]5[…]5G5TAGAT-3′ where 5=methyl deoxycitidine) and 2 μM ultrapure SAM (Cisbio #62SAHZLD). Negative control wells used 5 μl of DNMT1 and 5 μl of oligonucleotide but 0 μM SAM. All reagents were made up in 1× assay buffer (20 mM Tris pH 6.8, 25 mM NaCl, 0.5 mM MgCl2, 0.01% Triton X100 and 1 mM DTT). The reaction was incubated at 26° C. for 45 min and then stopped with the addition of 40 μl detection reagent. Detection reagent, made up in 1× Gla assay buffer (20 mM Tris pH 8.0, 80 mM NaCl, 0.75 mM MgCl2, 0.01% Triton X100 and 1 mM DTT) has a final concentration of 100 μM SAH (Sigma #A9384) and 0.0008 units/μl Gla1 restriction endonuclease (Sibenzyme #E494). Following addition of the detection reagent the plate was incubated in the dark at room temperature for 5 hr. Fluorescence intensity was then measured on the PHERAstar FS (BMG Labtech) at Ex 485 nm and Em 520 nm, with a gain of 400 and an integration time of 100 ms.

MV-4-11 AML cells = test: MV-4-11 cell proliferation assay (CellTiter-Glo, 6 days); format: cell-based; conditions: Homo sapiens, MV4-11, 144 h; 6 days treatment; binning as pXC50; read-out: MV4-11 Anti-proliferative activity (EC50 category)
Protocol: MV-4-11 Anti-Proliferative Activity (pEC50 Category)
Cell proliferation assay. Optimal cell seeding density was determined empirically for MV-4-11 AML cells by examining the growth of a wide range of seeding densities in a 384-well format to identify conditions that permitted maximal and continued proliferation for 6 days. MV-4-11 cells were plated in duplicate plates 24 hours before treatment with a 20-point two-fold dilution series of compound or 0.15% DMSO. Plates were incubated for 6 days at 37° C. in 5% CO2. Cells were then lysed with CellTiter-Glo (CTG) (Promega) and chemiluminescent signal was detected with an appropriate microplate reader. In addition, an untreated plate of cells was harvested at the time of compound addition (T0) to quantify the initial cell density. CTG values obtained after 6 days of treatment were expressed as a percent of the T0 value and plotted against compound concentration. Data were fit with a four parameter equation to generate a concentration response curve from which growth IC50 values were calculated.

human DNMT3a/3l = human DNMT3a/3l (Homo sapiens (Human), UniProt Q9Y6K1); test: DNMT3a/3l breaklight assay; format: biochemical
[2] = read-out: DNMT3A Breaklight IC50
[3] = repeated experimental runs, read-out: average IC50, DNMT3A breaklight assay

Chain of human DNMT3a/3l (Q9Y6K1 whole entry, looked up): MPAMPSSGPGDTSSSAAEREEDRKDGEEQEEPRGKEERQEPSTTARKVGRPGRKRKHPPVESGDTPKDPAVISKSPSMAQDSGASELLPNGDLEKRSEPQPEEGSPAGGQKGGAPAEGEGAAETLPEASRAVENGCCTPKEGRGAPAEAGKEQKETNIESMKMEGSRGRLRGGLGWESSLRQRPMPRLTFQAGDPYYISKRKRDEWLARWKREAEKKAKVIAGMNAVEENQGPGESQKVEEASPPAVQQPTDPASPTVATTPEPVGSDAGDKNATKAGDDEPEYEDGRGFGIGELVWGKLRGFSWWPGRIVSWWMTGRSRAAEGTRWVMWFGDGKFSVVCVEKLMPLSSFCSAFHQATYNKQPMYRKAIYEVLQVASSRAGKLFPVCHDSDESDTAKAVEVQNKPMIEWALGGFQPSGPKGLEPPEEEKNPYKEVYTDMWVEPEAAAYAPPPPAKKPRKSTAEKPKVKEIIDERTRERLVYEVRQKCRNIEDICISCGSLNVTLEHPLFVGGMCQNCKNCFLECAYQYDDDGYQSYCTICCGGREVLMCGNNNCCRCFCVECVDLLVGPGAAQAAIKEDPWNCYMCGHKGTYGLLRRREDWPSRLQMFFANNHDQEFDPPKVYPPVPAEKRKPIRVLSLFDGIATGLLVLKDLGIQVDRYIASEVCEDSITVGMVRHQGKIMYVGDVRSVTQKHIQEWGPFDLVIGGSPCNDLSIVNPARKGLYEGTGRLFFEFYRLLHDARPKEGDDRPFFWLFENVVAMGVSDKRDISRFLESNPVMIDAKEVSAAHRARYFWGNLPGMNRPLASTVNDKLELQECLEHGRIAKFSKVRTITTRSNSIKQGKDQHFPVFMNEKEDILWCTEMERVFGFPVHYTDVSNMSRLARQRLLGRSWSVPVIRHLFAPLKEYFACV
Chain of human DNMT3a/3l (Q9UJW3 whole entry partner, looked up): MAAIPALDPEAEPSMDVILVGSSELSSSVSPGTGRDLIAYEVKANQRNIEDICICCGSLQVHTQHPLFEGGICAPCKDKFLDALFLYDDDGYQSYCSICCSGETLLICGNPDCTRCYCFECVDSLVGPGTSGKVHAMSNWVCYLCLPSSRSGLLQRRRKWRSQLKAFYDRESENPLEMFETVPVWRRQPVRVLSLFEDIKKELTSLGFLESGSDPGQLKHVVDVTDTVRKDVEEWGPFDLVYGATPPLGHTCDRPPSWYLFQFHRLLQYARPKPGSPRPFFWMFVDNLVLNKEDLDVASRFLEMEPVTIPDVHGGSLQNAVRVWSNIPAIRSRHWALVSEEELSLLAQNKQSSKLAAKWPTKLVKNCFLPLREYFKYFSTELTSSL
Chain of human full length DNMT1 (P26358 whole entry): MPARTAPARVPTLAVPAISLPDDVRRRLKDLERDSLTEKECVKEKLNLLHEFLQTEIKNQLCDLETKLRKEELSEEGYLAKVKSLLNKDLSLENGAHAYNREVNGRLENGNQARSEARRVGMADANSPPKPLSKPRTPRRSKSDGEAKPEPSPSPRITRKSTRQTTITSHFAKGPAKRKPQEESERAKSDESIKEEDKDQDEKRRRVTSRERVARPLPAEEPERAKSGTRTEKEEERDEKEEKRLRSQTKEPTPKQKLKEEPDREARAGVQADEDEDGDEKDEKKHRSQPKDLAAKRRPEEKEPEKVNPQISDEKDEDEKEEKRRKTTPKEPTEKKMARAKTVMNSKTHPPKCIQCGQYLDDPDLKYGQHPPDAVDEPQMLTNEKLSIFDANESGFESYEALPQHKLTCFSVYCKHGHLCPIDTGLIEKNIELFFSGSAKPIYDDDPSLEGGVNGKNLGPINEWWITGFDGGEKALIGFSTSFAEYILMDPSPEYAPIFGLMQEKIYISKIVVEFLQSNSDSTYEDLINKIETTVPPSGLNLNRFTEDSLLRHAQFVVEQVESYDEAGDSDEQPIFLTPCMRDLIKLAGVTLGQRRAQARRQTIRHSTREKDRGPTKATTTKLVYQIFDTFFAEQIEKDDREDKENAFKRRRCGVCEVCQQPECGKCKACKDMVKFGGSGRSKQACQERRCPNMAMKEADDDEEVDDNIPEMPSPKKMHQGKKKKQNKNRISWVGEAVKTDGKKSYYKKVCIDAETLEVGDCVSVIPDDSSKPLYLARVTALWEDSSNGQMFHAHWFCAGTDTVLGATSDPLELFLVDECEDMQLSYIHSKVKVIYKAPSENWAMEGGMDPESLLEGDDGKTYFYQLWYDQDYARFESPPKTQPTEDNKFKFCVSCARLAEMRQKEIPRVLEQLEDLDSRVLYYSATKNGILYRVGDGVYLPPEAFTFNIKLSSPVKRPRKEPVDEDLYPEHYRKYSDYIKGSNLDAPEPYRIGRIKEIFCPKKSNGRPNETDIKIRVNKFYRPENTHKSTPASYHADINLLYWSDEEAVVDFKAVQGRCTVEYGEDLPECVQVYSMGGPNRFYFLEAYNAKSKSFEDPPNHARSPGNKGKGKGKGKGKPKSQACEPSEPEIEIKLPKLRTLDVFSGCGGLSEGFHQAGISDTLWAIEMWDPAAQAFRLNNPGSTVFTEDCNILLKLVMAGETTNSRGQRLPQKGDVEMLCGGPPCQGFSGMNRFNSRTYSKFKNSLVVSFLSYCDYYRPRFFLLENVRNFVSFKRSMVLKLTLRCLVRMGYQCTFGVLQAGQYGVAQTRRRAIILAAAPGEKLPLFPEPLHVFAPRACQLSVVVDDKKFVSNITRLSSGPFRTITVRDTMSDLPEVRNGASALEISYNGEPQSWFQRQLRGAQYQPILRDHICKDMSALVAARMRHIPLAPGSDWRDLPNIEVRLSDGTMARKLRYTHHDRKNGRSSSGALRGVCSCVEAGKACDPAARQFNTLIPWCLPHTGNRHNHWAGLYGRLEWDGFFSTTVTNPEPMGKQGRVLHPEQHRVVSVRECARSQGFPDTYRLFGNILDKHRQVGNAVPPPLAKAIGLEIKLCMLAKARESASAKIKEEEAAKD

Compound | IC50 (human full length DNMT1) [µM] | EC50 (MV-4-11 AML cells) [µM] | IC50 (human DNMT3a/3l; [2]) [µM] | IC50 (human DNMT3a/3l; [3]) [µM] | other results
CCc1c(C#N)c(SC(C(N)=O)c2ccccc2)nc(N(C)C)c1C#N (centres unmarked) [Compound A, 2-{[3,5-dicyano-6-(dimethylamino)-4-ethylpyridin-2-yl]sulfanyl}-2-phenylacetamide] |  |  |  |  | % F-RBCs (SCD transgenic mice): dose dependent increases; % F-reticulocytes (SCD transgenic mice): dose dependent increases; increase in % F RBCs ([1]; 10 mg/kg BID oral, p<0.001): 6 fold; increase in % F reticulocytes ([1]; 10 mg/kg BID oral, p<0.001): 4 fold; increase in % HbF protein ([1]; 10 mg/kg BID oral, p<0.05): 5.4 fold; increase in % F RBCs ([1]; 50 mg/kg BID oral, p<0.001): 8 fold; increase in % F reticulocytes ([1]; 50 mg/kg BID oral, p<0.001): 9 fold; increase in % HbF protein ([1]; 50 mg/kg BID oral, p<0.001): 10.3 fold
CCc1c(C#N)c(SC(C(N)=O)c2ccccc2)nc(N2CCNC(=O)CC2)c1C#N (centres unmarked) [Example 8, 2-{[3,5-dicyano-4-ethyl-6-(5-oxo-1,4-diazepan-1-yl)pyridin-2-yl]sulfanyl}-2-phenylacetamide] | > 0.75 | 1 to 31.6 | > 500 | > 500 | 
N#Cc1c(SC(C(N)=O)c2ccncc2)nc(N2CCOCC2)c(C#N)c1C1CC1 (centres unmarked) [Example 9, 2-((3,5-dicyano-4-cyclopropyl-6-morpholinopyridin-2-yl)thio)-2-(pyridin-4-yl)acetamide] | > 0.75 |  | > 500 | > 500 | 
CCc1c(C#N)c(SC(C(N)=O)c2ccccc2)nc(N2CCN(CC)CC2)c1C#N (centres unmarked) [Example 35, 2-((3,5-dicyano-4-ethyl-6-(4-ethylpiperazin-1-yl)pyridin-2-yl)thio)-2-phenylacetamide] | > 0.75 |  | > 500 | > 500 | 
CCc1c(C#N)c(SC(C(N)=O)c2ccccc2)nc(N2CCC23CCNCC3)c1C#N (centres unmarked) [Example 38, 2-((3,5-Dicyano-4-ethyl-6-(1,7-diazaspiro[3.5]nonan-1-yl)pyridin-2-yl)thio)-2-phenylacetamide trifluoroacetate] | > 0.75 | 1 to 31.6 |  |  | 
CN1CCN(C2CCN(c3nc(SC(C(N)=O)c4ccccc4)c(C#N)c(C4CC4)c3C#N)CC2)CC1 (centres unmarked) [Example 40, 2-((3,5-Dicyano-4-cyclopropyl-6-(4-(4-methylpiperazin-1-yl)piperidin-1-yl)pyridin-2-yl)thio)-2-phenylacetamide] | ≤ 0.5 | 0.316 to 1 |  |  | 
CCc1c(C#N)c(N[C@@H](C(N)=O)c2ccccc2)nc(N2CCCNCC2)c1C#N [Example 41, (R)-2-((3,5-dicyano-6-(1,4-diazepan-1-yl)-4-ethylpyridin-2-yl)amino)-2-phenylacetamide] | > 0.75 |  | > 500 | > 500 | 
CC(Sc1nc(N2CCCNCC2)c(C#N)c(C2CC2)c1C#N)C(N)=O (centres unmarked) [Example 46, 2-((3,5-dicyano-4-cyclopropyl-6-(1,4-diazepan-1-yl)pyridin-2-yl)thio)propanamide] |  | 1 to 31.6 | > 500 |  | 
CCc1c(C#N)c(SC(C(N)=O)c2ccccc2)nc(N2CCC(O)CC2)c1C#N (centres unmarked) [Example 48, 2-((3,5-Dicyano-4-ethyl-6-(4-hydroxypiperidin-1-yl)pyridin-2-yl)thio)-2-phenylacetamide] | 0.89 |  | > 500 |  | 
CCc1c(C#N)c(SC(C(N)=O)c2ccccc2)nc(N2CCNCC2)c1C#N (centres unmarked) [Example 55, 2-((3,5-Dicyano-4-ethyl-6-(piperazin-1-yl)pyridin-2-yl)thio)-2-phenylacetamide] |  | 1 to 31.6 | > 500 |  | 
CCc1c(C#N)c(SC(C(N)=O)c2ccccc2)nc(N2CCCN(C)CC2)c1C#N (centres unmarked) [Example 56, 2-((3,5-Dicyano-4-ethyl-6-(4-methyl-1,4-diazepan-1-yl)pyridin-2-yl)thio)-2-phenylacetamide] | ≤ 0.5 | 1 to 31.6 | > 500 | > 500 | 
CCc1c(C#N)c(SC(C(N)=O)c2ccccc2)nc(N2CCOCC2)c1C#N (centres unmarked) [Example 57, 2-((3,5-Dicyano-4-ethyl-6-morpholinopyridin-2-yl)thio)-2-phenylacetamide] |  | 0.316 to 1 | > 500 |  | 
N#Cc1c(SC(C(N)=O)c2ccccc2)nc(N2CCOC(CO)C2)c(C#N)c1C1CC1 (centres unmarked) [Example 63, 2-((3,5-Dicyano-4-cyclopropyl-6-(2-(hydroxymethyl)morpholino)pyridin-2-yl)thio)-2-phenylacetamide] | > 0.75 | 1 to 31.6 |  |  | 
CN1CCN(CC2CCN(c3nc(SC(C(N)=O)c4ccccc4)c(C#N)c(C4CC4)c3C#N)CC2)CC1 (centres unmarked) [Example 125, 2-((3,5-Dicyano-4-cyclopropyl-6-(4-((4-methylpiperazin-1-yl)methyl)piperidin-1-yl)pyridin-2-yl)thio-2-phenylacetamide trifluoroacetate] |  | 0.316 to 1 | 322 |  | 
